Laboratory results taken from patent publication US3957987A, “Compositions containing a carbonamidoquinoxaline-di-N-oxide and method of using same” (Bayer Aktiengesellschaft, priority 1971, dated 1976).
≈ marks a conversion by molar mass, not a printed value.

Assays:
Format in all cases: cell-based
Klebsiella 63 = assay: Minimum inhibitory concentration in vitro, Klebsiella 63
From the text: (§1) As representative of the spectrum of antimicrobial activity for these compounds, the following representative minimum inhibitory concentrations shown on Tables A, B and C can be noted:
(§2) Minimum Inhibitory Concentrations In Vitro, in μg/ml of Medium

Klebsiella 8085 = assay: Minimum inhibitory concentration in vitro, Klebsiella 8085
From the text: as §1, §2

[1] = system: Staphylococcus aureus 133; assay: Minimum inhibitory concentration in vitro, Staphylococcus aureus 133
From the text: as §1, §2

Streptococcus pyogenes = assay: Minimum inhibitory concentration in vitro, Streptococcus pyogenes
From the text: as §1, §2

Escherichia coli C 165 = assay: Minimum inhibitory concentration in vitro, Escherichia coli C 165; details: C165
From the text: as §1, §2

Clostridium tetani = assay: microbe, parasite or virus in culture; details: read-out: minimum inhibitory concentration
Clostridium botulinum = assay: microbe, parasite or virus in culture; details: read-out: minimum inhibitory concentration
Mycoplasma MS = assay: Minimum inhibitory concentration, Mycoplasma MS
From the text: (§3) As representative of the spectrum of antimicrobial activity for these compounds, the following representative minimum inhibitory concentrations shown on Tables A, B and C can be noted: […]

Mycoplasma S6 = assay: Minimum inhibitory concentration, Mycoplasma S6
Mycoplasma gran = assay: Minimum inhibitory concentration, Mycoplasma gran
[2] = system: Pasteurella multocida ATCC; assay: Minimum inhibitory concentration, Pasteurella multocida ATCC
[3] = system: Alcaligenes faecalis ATCC; assay: Minimum inhibitory concentration, Alcaligenes faecalis ATCC
[4] = system: Bordetella bronchiseptica; assay: Minimum inhibitory concentration, Bordetella bronchiseptica
Aeromonas liquefaciens = assay: Minimum inhibitory concentration, Aeromonas liquefaciens; details: Aeromonas hydrophila
Mycobacterium species = assay: Minimum inhibitory concentration, Mycobacterium species
From the text: as §3

Escherichia coli A 261 = assay: Minimum inhibitory concentration in vitro, Escherichia coli A 261; details: A261
From the text: as §1, §2

Proteus vulgaris = assay: Minimum inhibitory concentration in vitro, Proteus vulgaris specieis
From the text: as §1, §2

Row | Compound | MIC (Klebsiella 63) | MIC (Klebsiella 8085) | MIC [1] | MIC (Streptococcus pyogenes) | MIC (Escherichia coli C 165) | MIC (Clostridium tetani) | MIC (Clostridium botulinum) | MIC (Mycoplasma MS) | MIC (Mycoplasma S6) | MIC (Mycoplasma gran) | MIC [2] | MIC [3] | MIC [4] | MIC (Aeromonas liquefaciens) | MIC (Mycobacterium species) | MIC (Escherichia coli A 261) | MIC (Proteus vulgaris)
1 | COC(=O)NN=Cc1c(C(=O)N2CCCC2)[n+]([O-])c2ccccc2[n+]1[O-] [Example 12] | 100 µg/mL (≈ 278 µM) | 100 µg/mL (≈ 278 µM) | 10 µg/mL (≈ 27.8 µM) | 100 µg/mL (≈ 278 µM) | 100 µg/mL (≈ 278 µM) | 10 µg/mL (≈ 27.8 µM) | 10 µg/mL (≈ 27.8 µM) | 100 µg/mL (≈ 278 µM) | 10 µg/mL (≈ 27.8 µM) | 10 µg/mL (≈ 27.8 µM) | 1 µg/mL (≈ 2.78 µM) | 100 µg/mL (≈ 278 µM) | 100 µg/mL (≈ 278 µM) | 100 µg/mL (≈ 278 µM) | 100 µg/mL (≈ 278 µM) | – | –
2 | COC(=O)NN=Cc1c(C(=O)N2CCCCC2)[n+]([O-])c2ccccc2[n+]1[O-] [Example 10] | 100 µg/mL (≈ 268 µM) | 100 µg/mL (≈ 268 µM) | 100 µg/mL (≈ 268 µM) | 100 µg/mL (≈ 268 µM) | – | 10 µg/mL (≈ 26.8 µM) | 10 µg/mL (≈ 26.8 µM) | 100 µg/mL (≈ 268 µM) | 10 µg/mL (≈ 26.8 µM) | 10 µg/mL (≈ 26.8 µM) | 1 µg/mL (≈ 2.68 µM) | 100 µg/mL (≈ 268 µM) | 100 µg/mL (≈ 268 µM) | 100 µg/mL (≈ 268 µM) | 100 µg/mL (≈ 268 µM) | – | –
3 | CCNC(=O)c1c(C=NO)[n+]([O-])c2ccccc2[n+]1[O-] [Example 22] | – | – | – | – | – | 100 µg/mL (≈ 362 µM) | 1 µg/mL (≈ 3.62 µM) | 100 µg/mL (≈ 362 µM) | 10 µg/mL (≈ 36.2 µM) | 10 µg/mL (≈ 36.2 µM) | 10 µg/mL (≈ 36.2 µM) | 100 µg/mL (≈ 362 µM) | 100 µg/mL (≈ 362 µM) | 0.1 µg/mL (≈ 0.362 µM) | 100 µg/mL (≈ 362 µM) | – | –
4 | COC(=O)NN=Cc1c(C(=O)N2CCOCC2)[n+]([O-])c2ccccc2[n+]1[O-] [Example 21] | – | – | – | – | – | 100 µg/mL (≈ 266 µM) | 1 µg/mL (≈ 2.66 µM) | 10 µg/mL (≈ 26.6 µM) | 1 µg/mL (≈ 2.66 µM) | 0.1 µg/mL (≈ 0.266 µM) | 10 µg/mL (≈ 26.6 µM) | 100 µg/mL (≈ 266 µM) | 100 µg/mL (≈ 266 µM) | 1 µg/mL (≈ 2.66 µM) | 100 µg/mL (≈ 266 µM) | – | –
5 | COC(=O)NN=Cc1c(C(=O)NC2CCCCC2)[n+]([O-])c2ccccc2[n+]1[O-] [Example 16] | – | 100 µg/mL (≈ 258 µM) | 100 µg/mL (≈ 258 µM) | 100 µg/mL (≈ 258 µM) | – | 100 µg/mL (≈ 258 µM) | 100 µg/mL (≈ 258 µM) | – | 100 µg/mL (≈ 258 µM) | 100 µg/mL (≈ 258 µM) | 100 µg/mL (≈ 258 µM) | 100 µg/mL (≈ 258 µM) | 100 µg/mL (≈ 258 µM) | 100 µg/mL (≈ 258 µM) | – | – | –
6 | CC(C)NC(=O)c1c(C=NO)[n+]([O-])c2ccccc2[n+]1[O-] [Example 24] | – | – | – | – | – | 100 µg/mL (≈ 344 µM) | 1 µg/mL (≈ 3.44 µM) | 100 µg/mL (≈ 344 µM) | 100 µg/mL (≈ 344 µM) | 1 µg/mL (≈ 3.44 µM) | 100 µg/mL (≈ 344 µM) | 100 µg/mL (≈ 344 µM) | 100 µg/mL (≈ 344 µM) | 100 µg/mL (≈ 344 µM) | 100 µg/mL (≈ 344 µM) | – | –
7 | CCCNC(=O)c1c(C=NNC(=O)OC)[n+]([O-])c2ccccc2[n+]1[O-] [Example 15] | 100 µg/mL (≈ 288 µM) | 100 µg/mL (≈ 288 µM) | 100 µg/mL (≈ 288 µM) | 10 µg/mL (≈ 28.8 µM) | 100 µg/mL (≈ 288 µM) | 100 µg/mL (≈ 288 µM) | 100 µg/mL (≈ 288 µM) | – | 100 µg/mL (≈ 288 µM) | 100 µg/mL (≈ 288 µM) | 100 µg/mL (≈ 288 µM) | 100 µg/mL (≈ 288 µM) | 100 µg/mL (≈ 288 µM) | 100 µg/mL (≈ 288 µM) | 100 µg/mL (≈ 288 µM) | 100 µg/mL (≈ 288 µM) | –
8 | CCOC(=O)NN=Cc1c(C(=O)NCCO)[n+]([O-])c2ccccc2[n+]1[O-] [Example 27] | – | 100 µg/mL (≈ 275 µM) | – | 100 µg/mL (≈ 275 µM) | – | 100 µg/mL (≈ 275 µM) | 100 µg/mL (≈ 275 µM) | – | 100 µg/mL (≈ 275 µM) | 100 µg/mL (≈ 275 µM) | 100 µg/mL (≈ 275 µM) | 100 µg/mL (≈ 275 µM) | 100 µg/mL (≈ 275 µM) | 100 µg/mL (≈ 275 µM) | – | – | –
9 | CNC(=O)c1c(C=NO)[n+]([O-])c2ccccc2[n+]1[O-] [Example 19] | 100 µg/mL (≈ 381 µM) | 100 µg/mL (≈ 381 µM) | 100 µg/mL (≈ 381 µM) | 100 µg/mL (≈ 381 µM) | 100 µg/mL (≈ 381 µM) | 100 µg/mL (≈ 381 µM) | 100 µg/mL (≈ 381 µM) | – | 100 µg/mL (≈ 381 µM) | 100 µg/mL (≈ 381 µM) | 100 µg/mL (≈ 381 µM) | 100 µg/mL (≈ 381 µM) | 100 µg/mL (≈ 381 µM) | 100 µg/mL (≈ 381 µM) | 40 to 100 µg/mL (≈ 153 to 381 µM) | 100 µg/mL (≈ 381 µM) | 100 µg/mL (≈ 381 µM)
